Like-named read-outs stand apart in the source and are kept apart here. One block for each compound: values may come before it.
How the values were obtained:
rat nNOS = target: T1, rat nNOS (Rattus norvegicus, UniProt P29476); test: NOS inhibition, oxyhemoglobin (hemoglobin capture) test, recombinant nNOS; assay type: biochemical; conditions: recombinant enzyme, 10 µM arginine, triplicate, NI = <50% inhibition at 100 μM
T1 construct: Full-length recombinant rat nNOS, mouse iNOS, bovine eNOS; made in house; host or cells: Escherichia coli
Description: (§1) The inhibitory effects of all compounds against the three recombinant NOSs (rat nNOS, mouse iNOS, and bovine eNOS) were evaluated in 96-well plates using the oxyhemoglobin test. A first screening at 100 and 10 μM was performed, and the IC50 values were measured for compounds showing more than 50% inhibition at 100 μM (Table 1 and Table 2).
(§2) Full-length recombinant rat nNOS, mouse iNOS, bovine eNOS, and the heme domains of rat brain nNOS and mouse iNOS were expressed in Escherichia coli and purified as described previously.
(§3) NOS catalytic activity was measured using the hemoglobin capture assay. The test was performed at 30 °C in 96-well microplates using a final volume of 200 µL. The assay mixture contained 100 µM NADPH, 10 µM BH4, 6 µM HbO2, 100 µM DTT, 5 µM FAD, 5 µM FMN, 10 µM (nNOS and eNOS), or 20 µM (iNOS) arginine, all in a 100 mM Hepes buffer, pH 7.5, and, for constitutive n- and e-NOS, 10 µg/mL calmodulin, and 1 mM CaCl2. The studied compounds were introduced as 2 μL of ×100 concentrated solutions in DMSO, and the control experiments were performed with DMSO or the buffer only. The kinetics of NO production were measured at 401 nm using an Infinite F500 microplate reader (Tecan, Singapore).

mouse iNOS [1] = target: T2, mouse iNOS (Mus musculus, UniProt P29477); test: NOS inhibition, oxyhemoglobin (hemoglobin capture) test, recombinant iNOS; assay type: biochemical; conditions: recombinant enzyme, 20 µM arginine, triplicate, NI = <50% inhibition at 100 μM
T2 construct: Full-length recombinant rat nNOS, mouse iNOS, bovine eNOS; made in house; host or cells: Escherichia coli
T2 sequence (P29477 1-1144): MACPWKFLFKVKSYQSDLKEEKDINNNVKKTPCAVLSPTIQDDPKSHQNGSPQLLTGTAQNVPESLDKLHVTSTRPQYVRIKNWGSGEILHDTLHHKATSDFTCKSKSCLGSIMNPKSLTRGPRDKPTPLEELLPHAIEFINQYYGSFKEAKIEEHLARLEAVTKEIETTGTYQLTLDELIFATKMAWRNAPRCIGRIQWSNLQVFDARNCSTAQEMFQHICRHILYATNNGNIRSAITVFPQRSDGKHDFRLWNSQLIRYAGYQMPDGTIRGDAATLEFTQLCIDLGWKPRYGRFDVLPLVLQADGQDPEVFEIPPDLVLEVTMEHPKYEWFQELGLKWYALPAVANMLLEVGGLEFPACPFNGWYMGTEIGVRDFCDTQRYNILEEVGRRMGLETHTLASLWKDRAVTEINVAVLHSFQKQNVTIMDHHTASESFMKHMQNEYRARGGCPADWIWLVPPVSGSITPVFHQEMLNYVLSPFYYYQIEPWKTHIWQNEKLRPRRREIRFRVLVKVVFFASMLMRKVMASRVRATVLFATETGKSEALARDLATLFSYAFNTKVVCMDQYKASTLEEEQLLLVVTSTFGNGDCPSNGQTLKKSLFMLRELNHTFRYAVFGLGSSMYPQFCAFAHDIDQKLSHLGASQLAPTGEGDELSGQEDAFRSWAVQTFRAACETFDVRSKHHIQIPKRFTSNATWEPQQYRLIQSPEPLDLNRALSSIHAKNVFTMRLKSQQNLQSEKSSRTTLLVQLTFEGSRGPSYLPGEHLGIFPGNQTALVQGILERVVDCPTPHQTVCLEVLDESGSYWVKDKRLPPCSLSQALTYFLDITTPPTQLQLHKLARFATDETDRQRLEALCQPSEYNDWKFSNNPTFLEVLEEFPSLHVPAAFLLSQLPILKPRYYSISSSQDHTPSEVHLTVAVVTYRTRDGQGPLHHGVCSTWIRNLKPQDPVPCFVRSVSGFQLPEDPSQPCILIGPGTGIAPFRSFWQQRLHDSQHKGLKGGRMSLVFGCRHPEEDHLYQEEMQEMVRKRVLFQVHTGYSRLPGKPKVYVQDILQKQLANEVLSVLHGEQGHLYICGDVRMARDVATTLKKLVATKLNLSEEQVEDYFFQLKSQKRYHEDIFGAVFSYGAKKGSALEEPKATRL
Description: as §1, §2, §3

bovine eNOS = target: T3, bovine eNOS (Bos taurus, UniProt P29473); test: NOS inhibition, oxyhemoglobin (hemoglobin capture) test, recombinant eNOS; assay type: biochemical; conditions: recombinant enzyme, 10 µM arginine, triplicate, NI = <50% inhibition at 100 μM, read-out: IC50 (μM) eNOS (Bovine)
T3 construct: Full-length recombinant rat nNOS, mouse iNOS, bovine eNOS; made in house; host or cells: Escherichia coli

RAW 264.7 cells [2] = test: Cell viability, MTT assay; assay type: cell-based, murine
Description: Cell viability was evaluated in the murine macrophage RAW 264.7 cells using an MTT assay for compounds 18, 21, 26, and 30. This experiment was performed without or with LPS (1 µg/mL), which induces iNOS expression (Figure S1). […] Compound 30 only killed 20% of the cells at 500 μM (Figure S1A). In the presence of LPS (1 µg/mL), cell viability was reduced by 30% due to the inhibition by NO of key enzymes involved in cell metabolism (Figure S1B).
The macrophage cell line RAW 264.7 (a gift from Dr. A. Blangy, Montpellier, France) was cultured in Dulbecco’s Modified Eagle’s Medium (DMEM) supplemented with 10% FCS, 100 units/mL penicillin, 100 µg/mL streptomycin, and 2 mM L-glutamine.
(§4) Cellular NO production was measured using the Griess reagent (Sigma-Aldrich), which evaluates the nitrite content in culture media. Cellular toxicity was estimated by the MTT assay (Sigma-Aldrich) in RAW 264.7 cells after the induction (or not) of iNOS by LPS, according to the manufacturer’s recommendations.

iNOS in RAW 264.7 cells = target: T4, iNOS in RAW 264.7 cells (Mus musculus, UniProt P29477); test: Inhibition of NO production (nitrite, Griess) in LPS-stimulated cells; assay type: cell-based, murine; conditions: RAW264.7; RAW 264.7, LPS 1 µg/mL, 100 μM compound; read-out: Inhibition of intracellular NO production
T4 construct: In RAW 264.7 cells, iNOS was induced by LPS (1 µg/mL, Sigma-Aldrich) for 24 h; endogenous in cells; host or cells: RAW 264.7 murine macrophages, LPS-induced
Description: We evaluated the ability of selected compounds (dipeptides 7, 8, and 21 and 1,2,4-oxadiazoles 30 and 40) to inhibit iNOS in RAW 264.7 cells (Figure 2), where iNOS was induced by LPS (1 µg/mL). iNOS activity was measured following LPS induction by quantifying nitrite accumulation in the supernatant. […] A similar result was previously reported.
In RAW 264.7 cells, iNOS was induced by LPS (1 µg/mL, Sigma-Aldrich) for 24 h. All studied compounds were incubated with cells during the last 24 h.
as §4

mouse iNOS [3] = test: NOS inhibition, oxyhemoglobin (hemoglobin capture) test, recombinant iNOS; assay type: biochemical; conditions: from IC50 values
Description: as §1, §2, §3

nNOS = tested on: nNOS; parameters: method as in PMID 14718923; conditions: cited from earlier work
eNOS = target: eNOS; parameters: method as in PMID 14718923; conditions: read-out: Experimental Ki eNOS; cited from earlier work
RAW 264.7 cells [4] = tested on: RAW 264.7 cells; parameters: method as in PMID 32027778; conditions: RAW 264.7, LPS; cited from earlier work
[5] = target: T5, oxygenase domain of nNOS (nNOSoxy) (Rattus norvegicus, UniProt P29476); test: UV-visible difference spectroscopy titration of nNOSoxy; assay type: binding; conditions: UV/Vis difference spectroscopy, ± SD, three experiments; read-out: Apparent equilibrium constant Ks nNOSoxy
T5 construct: the oxygenase domain of nNOS (nNOSoxy) and iNOS (iNOSoxy); made in house; host or cells: Escherichia coli
Text: (§5) We performed UV–visible difference spectroscopy to analyze the interaction mode of some inhibitors with the heme-active site of NOS [54]. We have studied the effects of dipeptide-like compounds 7, 17, 19, 23, and 27 and 1,2,4-oxadiazole 35 on the UV–visible spectra of the oxygenase domain of nNOS (nNOSoxy) and iNOS (iNOSoxy). As expected, when added stepwise to n- and iNOSoxy, all selected compounds elicited different spectra with a trough at ~425 nm and a peak at ~395 nm, similar to the substrate L-arginine. This profile is characteristic of type I interactions, meaning that they are bound in close proximity to the heme prosthetic group and shifted the spin state equilibrium to the pentacoordinated heme–Fe^III state. Double reverse plotting of the differences in absorbance between the peak at ~395 nm and valley at ~425 nm (ΔA395–425 nm) as a function of the concentration of the added compounds allowed calculating apparent binding constants (Ks) (Table 3). The reference inhibitor SEITU [55] tightly bound both NOS isoforms with high affinity but no selectivity. With the exception of the dipeptide-like 27 and the heterocyclic analog 35, which similarly interacted with both proteins, other compounds preferentially bound nNOSoxy over iNOSoxy with apparent affinities close to SEITU for this isoform.
as §2
(§6) This study was performed as previously described.

[6] = target: T6, oxygenase domain of iNOS (iNOSoxy) (Mus musculus, UniProt P29477); test: UV-visible difference spectroscopy titration of iNOSoxy; assay type: binding; conditions: UV/Vis difference spectroscopy, ± SD, three experiments; read-out: Apparent equilibrium constant Ks iNOSoxy
T6 construct: the oxygenase domain of nNOS (nNOSoxy) and iNOS (iNOSoxy); made in house; host or cells: Escherichia coli
T6 sequence (P29477 1-498 limits assumed): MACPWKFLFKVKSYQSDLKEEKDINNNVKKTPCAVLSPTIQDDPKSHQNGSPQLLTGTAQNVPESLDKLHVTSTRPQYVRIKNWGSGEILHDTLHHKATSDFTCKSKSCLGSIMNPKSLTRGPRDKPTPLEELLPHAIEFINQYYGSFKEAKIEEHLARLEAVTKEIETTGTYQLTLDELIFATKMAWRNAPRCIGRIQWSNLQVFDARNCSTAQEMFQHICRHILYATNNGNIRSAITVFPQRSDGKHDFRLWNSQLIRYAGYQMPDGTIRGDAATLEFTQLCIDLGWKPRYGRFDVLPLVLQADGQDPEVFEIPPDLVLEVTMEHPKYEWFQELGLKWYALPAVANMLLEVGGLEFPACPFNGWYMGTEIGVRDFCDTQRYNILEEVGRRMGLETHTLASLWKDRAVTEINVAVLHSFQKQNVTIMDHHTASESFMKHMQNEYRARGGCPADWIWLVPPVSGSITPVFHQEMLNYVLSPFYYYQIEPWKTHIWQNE
Text: as §5, §2, §6

T3 sequence (P29473 whole entry): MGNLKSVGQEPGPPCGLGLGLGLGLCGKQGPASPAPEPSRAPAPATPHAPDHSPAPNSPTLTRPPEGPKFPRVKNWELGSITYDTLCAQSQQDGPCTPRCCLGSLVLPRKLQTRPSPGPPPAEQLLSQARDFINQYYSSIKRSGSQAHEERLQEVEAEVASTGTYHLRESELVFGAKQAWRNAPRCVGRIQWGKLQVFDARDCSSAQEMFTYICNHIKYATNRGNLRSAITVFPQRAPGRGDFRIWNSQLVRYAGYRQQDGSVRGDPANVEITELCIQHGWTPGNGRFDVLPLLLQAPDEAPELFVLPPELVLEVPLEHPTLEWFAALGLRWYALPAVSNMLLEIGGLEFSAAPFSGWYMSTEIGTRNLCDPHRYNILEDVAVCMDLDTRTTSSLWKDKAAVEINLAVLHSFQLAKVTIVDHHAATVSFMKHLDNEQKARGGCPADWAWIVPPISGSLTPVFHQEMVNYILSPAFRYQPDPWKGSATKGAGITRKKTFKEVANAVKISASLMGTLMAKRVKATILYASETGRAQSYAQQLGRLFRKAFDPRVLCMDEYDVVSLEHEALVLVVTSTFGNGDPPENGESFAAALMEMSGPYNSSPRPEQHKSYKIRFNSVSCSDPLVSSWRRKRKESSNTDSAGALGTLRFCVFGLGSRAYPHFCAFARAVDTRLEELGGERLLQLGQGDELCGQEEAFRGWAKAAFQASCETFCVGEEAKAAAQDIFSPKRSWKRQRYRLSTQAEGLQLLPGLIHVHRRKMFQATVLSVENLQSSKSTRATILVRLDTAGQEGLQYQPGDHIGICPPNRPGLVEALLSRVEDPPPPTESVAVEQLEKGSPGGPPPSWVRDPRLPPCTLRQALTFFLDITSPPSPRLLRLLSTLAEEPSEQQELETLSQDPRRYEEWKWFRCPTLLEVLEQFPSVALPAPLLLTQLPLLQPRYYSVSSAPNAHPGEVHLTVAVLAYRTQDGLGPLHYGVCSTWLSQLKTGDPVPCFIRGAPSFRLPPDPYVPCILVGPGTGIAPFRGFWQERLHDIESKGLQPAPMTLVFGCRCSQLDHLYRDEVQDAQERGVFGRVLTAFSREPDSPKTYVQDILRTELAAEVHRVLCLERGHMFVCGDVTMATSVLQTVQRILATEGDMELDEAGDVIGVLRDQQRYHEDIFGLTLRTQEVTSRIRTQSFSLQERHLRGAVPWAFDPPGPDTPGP
T1 sequence (P29476 whole entry): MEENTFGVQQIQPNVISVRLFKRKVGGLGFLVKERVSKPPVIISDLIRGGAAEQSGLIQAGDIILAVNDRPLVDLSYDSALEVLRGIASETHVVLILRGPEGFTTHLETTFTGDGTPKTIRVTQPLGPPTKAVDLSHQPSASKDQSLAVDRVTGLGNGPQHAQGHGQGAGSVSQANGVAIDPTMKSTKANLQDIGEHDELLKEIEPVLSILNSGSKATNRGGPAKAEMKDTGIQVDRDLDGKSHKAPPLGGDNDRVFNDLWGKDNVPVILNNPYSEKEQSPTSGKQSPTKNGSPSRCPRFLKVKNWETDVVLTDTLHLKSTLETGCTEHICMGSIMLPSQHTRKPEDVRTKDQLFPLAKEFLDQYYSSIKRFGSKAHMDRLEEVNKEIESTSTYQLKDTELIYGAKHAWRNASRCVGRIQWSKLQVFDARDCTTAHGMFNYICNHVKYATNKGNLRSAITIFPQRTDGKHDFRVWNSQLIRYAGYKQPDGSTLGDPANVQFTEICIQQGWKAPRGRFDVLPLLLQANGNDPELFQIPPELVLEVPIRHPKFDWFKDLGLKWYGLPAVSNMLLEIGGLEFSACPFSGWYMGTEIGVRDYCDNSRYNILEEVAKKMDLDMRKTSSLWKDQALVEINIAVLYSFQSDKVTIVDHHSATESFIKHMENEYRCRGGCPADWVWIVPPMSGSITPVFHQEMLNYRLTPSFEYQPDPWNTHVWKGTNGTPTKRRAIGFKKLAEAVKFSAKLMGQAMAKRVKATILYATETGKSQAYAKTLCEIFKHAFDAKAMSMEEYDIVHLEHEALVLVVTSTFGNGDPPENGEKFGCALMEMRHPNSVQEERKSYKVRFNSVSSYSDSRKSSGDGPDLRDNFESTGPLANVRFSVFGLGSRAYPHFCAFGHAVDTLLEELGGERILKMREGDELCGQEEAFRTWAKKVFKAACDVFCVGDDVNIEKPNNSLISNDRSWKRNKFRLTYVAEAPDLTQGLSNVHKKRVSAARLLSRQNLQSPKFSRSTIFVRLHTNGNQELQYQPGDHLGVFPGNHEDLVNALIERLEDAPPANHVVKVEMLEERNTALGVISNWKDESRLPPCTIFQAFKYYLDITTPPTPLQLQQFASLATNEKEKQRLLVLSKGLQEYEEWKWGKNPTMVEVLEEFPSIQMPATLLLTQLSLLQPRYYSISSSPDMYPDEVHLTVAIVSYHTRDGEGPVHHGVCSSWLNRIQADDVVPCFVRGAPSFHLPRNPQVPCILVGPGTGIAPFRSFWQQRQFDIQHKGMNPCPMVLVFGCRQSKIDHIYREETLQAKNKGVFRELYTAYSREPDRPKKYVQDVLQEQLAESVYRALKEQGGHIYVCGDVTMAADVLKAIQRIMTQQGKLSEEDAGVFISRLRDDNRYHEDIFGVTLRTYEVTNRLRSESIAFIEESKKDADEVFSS
T5 sequence (P29476 1-720 limits assumed): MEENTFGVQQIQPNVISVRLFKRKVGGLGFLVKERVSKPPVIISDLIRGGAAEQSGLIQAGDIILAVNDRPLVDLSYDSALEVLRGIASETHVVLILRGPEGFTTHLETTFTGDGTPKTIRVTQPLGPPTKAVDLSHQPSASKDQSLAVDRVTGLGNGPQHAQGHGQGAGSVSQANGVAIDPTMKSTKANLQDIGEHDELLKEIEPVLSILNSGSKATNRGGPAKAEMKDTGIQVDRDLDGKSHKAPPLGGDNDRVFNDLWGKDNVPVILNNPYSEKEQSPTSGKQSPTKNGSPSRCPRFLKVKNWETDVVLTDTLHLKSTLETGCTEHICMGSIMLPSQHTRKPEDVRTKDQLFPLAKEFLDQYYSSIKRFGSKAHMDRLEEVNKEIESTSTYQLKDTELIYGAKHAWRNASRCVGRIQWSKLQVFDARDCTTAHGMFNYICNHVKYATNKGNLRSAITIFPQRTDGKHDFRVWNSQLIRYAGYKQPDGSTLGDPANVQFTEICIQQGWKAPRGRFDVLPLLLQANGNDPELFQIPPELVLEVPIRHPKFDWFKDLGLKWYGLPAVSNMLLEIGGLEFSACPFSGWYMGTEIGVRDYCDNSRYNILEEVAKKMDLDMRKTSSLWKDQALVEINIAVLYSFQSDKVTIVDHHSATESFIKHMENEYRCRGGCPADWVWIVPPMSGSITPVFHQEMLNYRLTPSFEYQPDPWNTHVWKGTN

IC50 (rat nNOS; dipeptide-like series): 1 µM
IC50 (mouse iNOS [1]; dipeptide-like series): 45.5 µM
inhibition at 100 µM (bovine eNOS; dipeptide-like series): < 50%
inhibition at 100 µM (iNOS in RAW 264.7 cells): 80%
SMILES: CCSC(=N)NCCC[C@H](N)C(=O)N[C@H]1CCCN(Cc2cccc(Br)c2)C1 [Compound 21]
Reversal of LPS-induced reduction of cell viability (RAW 264.7 cells [2]; RAW 264.7, LPS 1 µg/mL): none partially reversed the LPS effect
Effect on cell viability (MTT) (RAW 264.7 cells [2]; RAW 264.7, absence of LPS, up to 100 μM): did not modify cell viability

IC50 (rat nNOS; 1,2,4-oxadiazole series): 61 µM
IC50 (mouse iNOS [1]; 1,2,4-oxadiazole series): 2 µM
inhibition at 100 µM (bovine eNOS; 1,2,4-oxadiazole series): < 50%
SMILES: CCSC(=N)NCCC[C@H](N)c1nc(CCN(Cc2ccccc2[N+](=O)[O-])Cc2ccccc2[N+](=O)[O-])no1 [Compound 40]
Selectivity for iNOS toward eNOS (mouse iNOS [3]): > 50 fold
Selectivity for iNOS toward nNOS (mouse iNOS [3]): 30 fold

SMILES: N=C(NCCC[C@H](N)C(=O)N1C[C@H](N)C[C@H]1C(N)=O)N[N+](=O)[O-] [DP9, L-Nω-nitroarginine-(4R)-amino-L-prolinamide]
Selectivity in favor of nNOS over eNOS (nNOS): 1000 fold
Ki (nNOS; read-out: Experimental Ki nNOS): 0.1 µM
Ki (eNOS): 110 µM

SMILES: CC(=N)NCCCC[C@H](N)C(=O)O [L-NIL]
Reversal of LPS-induced reduction of cell viability (RAW 264.7 cells [4]): partially reversed the LPS effect

SMILES: CCSC(=N)N [SEITU, reference compound]
Kd [5]: 6.4 ± 1.5 µM
Kd [6]: 1.7 ± 0.1 µM
Reversal of LPS-induced reduction of cell viability (RAW 264.7 cells [4]): partially reversed the LPS effect

From PMC10343299, “S-Ethyl-Isothiocitrullin-Based Dipeptides and 1,2,4-Oxadiazole Pseudo-Dipeptides: Solid Phase Synthesis and Evaluation as NO Synthase Inhibitors” (Molecules, 2023)
